How the values were obtained:
[1] = target: T1, Substance-K receptor (Homo sapiens, UniProt P21452); experiment: Functional affinity was evaluated by measuring the intracellular calcium concentration in CHO cells transfected with the human Tachykinin receptor 2 using Fura-2; assay type: cell-based; conditions: read-out: pA2 (converted)
T1 sequence (P21452 whole entry): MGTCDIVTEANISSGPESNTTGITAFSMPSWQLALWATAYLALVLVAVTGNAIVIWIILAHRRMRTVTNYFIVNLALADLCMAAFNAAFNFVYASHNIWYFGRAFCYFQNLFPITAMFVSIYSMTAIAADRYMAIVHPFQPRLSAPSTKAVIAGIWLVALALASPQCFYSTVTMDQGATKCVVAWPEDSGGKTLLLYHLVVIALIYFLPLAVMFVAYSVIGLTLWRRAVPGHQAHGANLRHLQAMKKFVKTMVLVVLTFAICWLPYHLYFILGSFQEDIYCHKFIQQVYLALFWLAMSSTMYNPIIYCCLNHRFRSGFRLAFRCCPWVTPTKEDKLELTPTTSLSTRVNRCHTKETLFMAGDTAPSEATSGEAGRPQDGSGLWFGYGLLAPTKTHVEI

[2] = target: T1, Substance-K receptor; experiment: Compound was tested for it's binding affinity against human Tachykinin receptor 2

| Kb [1] | Ki [2] | Compound |
| --- | --- | --- |
| 10 nM | 10 nM | CN(CCc1c[nH]c2ccccc12)C(=O)c1ccccc1C(=O)N(CCCN1CCSCC1)CCc1c[nH]c2ccccc12 |
| 3.98 nM | 3.98 nM | O=C(c1ccccc1C(=O)N(CCCN1CCSCC1)CCc1c[nH]c2ccccc12)N(CCCN1CCSCC1)CCc1c[nH]c2ccccc12 |
| – | 2 nM | CN(C)CCN(C)C(=O)c1nccnc1C(=O)N[C@@H]1CC(=O)N[C@@H](Cc2c[nH]c3ccccc23)C(=O)N[C@@H](Cc2ccccc2)C(=O)N[C@H](Cc2ccccc2)CNC1=O |
| – | 31.6 nM | O=C(c1ccccc1C(=O)N(CCCN1CCOCC1)CCc1c[nH]c2ccccc12)N(CCCN1CCOCC1)CCc1c[nH]c2ccccc12 |
| – | 501 nM | O=C(NCCc1c[nH]c2ccccc12)c1nccnc1C(=O)N(CCCN1CCOCC1)CCc1c[nH]c2ccccc12 |
| – | 126 nM | O=C(c1nccnc1C(=O)N(CCCN1CCOCC1)CCc1c[nH]c2ccccc12)N(CCCN1CCOCC1)CCc1c[nH]c2ccccc12 |
